Reference: patent US20260364184A1, “COMPOUND BASED ON OXOISOINDOLINYL-SUBSTITUTED TETRAHYDROPYRIMIDINE-DIONE AND USE THEREOF” (GLUETACS THERAPEUTICS (SHANGHAI) CO., LTD., priority 2023, published 2026)
Read-outs that look alike come from different tables or passages of the source.

Columns and labels:
Format in all cases: cell-based
[1] = tested on: Human T lymphocytic leukemia cell line (Jurkat); test: Inhibition of Jurkat cell proliferation (CellTiter luminescent viability); settings: Homo sapiens, Table IF3, AR inhibitor-based, 96 hours; for inhibition at 0.01 µM: 10 nM, read-out: Inhibition Rate at 10 nM (%); for inhibition at 0.5 µM: 500 nM, read-out: Inhibition Rate at 500 nM (%)
Method: (§1) The tumor cells used herein were cultured in a cell culture medium listed in table 3 at 37 °C in an incubator with 5% CO2. Prior to experimentation, all cell lines used were correctly identified by STR profiling, and tested negative for mycoplasma contamination using a mycoplasma detection kit through routine screenings.
(§2) The IC50 values of the compounds of the present disclosure (including the compounds in Table 1, Table 2, and Examples 1-468) were determined using the CellTiter-Meiluncell Luminescent Cell Viability Assay Kit from Dalian Meilun Biotech Co., Ltd. The detailed procedure is as follows: Tumor cells were seeded in 96-well cell culture plates at the densities specified in Table 4. On the following day, the test compounds of the present disclosure were subjected to serial dilution. The dilution can be performed according to one of the following two methods: • (1) The first dilution method: The test compounds of the present disclosure (including the compounds in Table 1, Table 2, and Examples 1-468) were subjected to 5-fold serial dilutions starting from a highest concentration of 2000 μM, resulting in a total of 9 concentrations from high to low (2000, 400, 80, 16, 3.2, 0.64, 0.128, 0.0256, 0.00512 μM). Subsequently, 0.5 μL of the test compound dilution was transferred into the 96-well plate containing the cells, with each well containing 100 μL of cell culture medium. […] Into the 96-well plate, the diluted test compounds and corresponding detection reagents were added, resulting in final test compound concentrations of 500 nM and 10 nM, respectively. The experimental procedure is described below using the diluted 2 μM test compound as an example.
(§3) 0.5 μL of the aforementioned diluted compound of the present disclosure (including the compounds in Table 1, Table 2, and Examples 1-468) was added to the seeded cells in 100 μL of medium, yielding a final test compound concentration of 10 nM. After the cells were treated with the compounds of the present disclosure for a specified period, the cell viability assay reagent was added to the culture medium according to the kit's instructions to determine cell viability. […] All controls were treated using the same procedure as the compounds of the present disclosure. The growth inhibition curves for the compounds of the present disclosure were plotted using Prism GraphPad software, and the IC50 values were calculated therefrom.

[2] = tested on: Human acute lymphocytic leukemia T lymphocytes cell line (CCRF-CEM); test: Inhibition of CCRF-CEM cell proliferation (CellTiter luminescent viability); settings: Homo sapiens, 96 h, Table IF2, AR inhibitor-based; for inhibition at 0.01 µM: 10 nM, read-out: Inhibition Rate at 10 nM (%); for inhibition at 0.5 µM: 500 nM, read-out: Inhibition Rate at 500 nM (%)
Method: as §1, §2, §3

[3] = tested on: Human diffuse large B-cell lymphoma cell line (TMD8); test: Inhibition of TMD8 cell proliferation (CellTiter luminescent viability); settings: Homo sapiens, TMD8, 96 h, Table IF1, AR inhibitor-based; for inhibition at 0.01 µM: TMD8, 10 nM, read-out: Inhibition Rate at 10 nM (%); for inhibition at 0.5 µM: TMD8, 500 nM, read-out: Inhibition Rate at 500 nM (%)
Method: as §1, §2, §3

[4] = tested on: Human myeloid monocytic leukemia cell line (MV-4-11); test: Inhibition of MV-4-11 cell proliferation (CellTiter luminescent viability); settings: Homo sapiens, MV4-11, Table IE3, CDK4/6 inhibitor-based, 96 hours; for inhibition at 0.01 µM: MV-4-11, 10 nM, read-out: Inhibition Rate at 10 nM (%); for inhibition at 0.5 µM: MV-4-11, 500 nM, read-out: Inhibition Rate at 500 nM (%)
In short: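 Cells are seeded in 96-well plates, cultured at 37 °C, 5% CO2, and treated next day with 5-fold serial compound dilutions (stock series from 2000 μM; 0.5 μL into 100 μL medium). Viability is read by CellTiter-Meiluncell luminescence after the set exposure, and IC50 is taken from growth-inhibition curves.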

[5] = tested on: Human lung cancer cell line (H292); test: Inhibition of H292 cell proliferation (CellTiter luminescent viability); settings: 96 hours; for inhibition at 0.01 µM: H292, 10 nM, read-out: Inhibition Rate at 10 nM (%); for inhibition at 0.5 µM: H292, 500 nM, read-out: Inhibition Rate at 500 nM (%)
Method: as §1, §2, §3

[6] = NCI-H292, Table IE2, CDK4/6 inhibitor-based
[7] = NCI-H292, Table IM1, CDK9 inhibitor-based

Row | SMILES | inhibition at 0.01 µM [1] [%] | inhibition at 0.5 µM [1] [%] | inhibition at 0.01 µM [2] [%] | inhibition at 0.5 µM [2] [%] | inhibition at 0.01 µM [3] [%] | inhibition at 0.5 µM [3] [%] | inhibition at 0.01 µM [4] [%] | inhibition at 0.5 µM [4] [%] | inhibition at 0.01 µM [5, 6] [%] | inhibition at 0.5 µM [5, 6] [%] | inhibition at 0.01 µM [5, 7] [%] | inhibition at 0.5 µM [5, 7] [%]
1 | CNC(=O)c1ccc(N2C(=S)N(c3ccc(C#N)c(C(F)(F)F)c3)C(=O)C2(C)C)cc1F [Enzalutamide, reference compound] | 5 to 10 | 5 to 10 | 0 to 5 | 0 to 5 | 10 to 15 | 10 to 15 |  |  |  |  |  | 
2 | N#Cc1ccc(O[C@H]2CC[C@H](NC(=O)c3ccc(N4CCC(CN5CC6CC(C5)N6c5ccc6c(c5)C(=O)N(N5CCC(=O)NC5=O)C6=O)CC4)nn3)CC2)cc1Cl [GT-05231, N-((1r,4r)-4-(3-chloro-4-cyanophenoxy)cyclohexyl)-6-(4-((6-(2-(2,4-dioxotetrahydropyrimidin-1(2H)-yl)-1,3-dioxoisoindolin-5-yl)-3,6-diazabicyclo[3.1.1]heptan-3-yl)methyl)piperidin-1-yl)pyridazine-3-carboxamide] | 10 to 15 | 30 to 40 | 5 to 10 | 30 to 40 | 5 to 10 | 40 to 60 |  |  |  |  |  | 
3 | N#Cc1ccc(O[C@H]2CC[C@H](NC(=O)c3ccc(N4CCC(CN5C[C@H]6C[C@@H]5CN6c5ccc6c(c5)C(=O)N(N5CCC(=O)NC5=O)C6=O)CC4)nn3)CC2)cc1Cl [GT-05227, N-((1r,4r)-4-(3-chloro-4-cyanophenoxy)cyclohexyl)-6-(4-(((1R,4R)-5-(2-(2,4-dioxotetrahydropyrimidin-1(2H)-yl)-1,3-dioxoisoindolin-5-yl)-2,5-diazabicyclo[2.2.1]heptan-2-yl)methyl)piperidin-1-yl)pyridazine-3-carboxamide] | 5 to 10 | 20 to 30 | 20 to 30 | 20 to 30 | 15 to 20 | 25 to 30 |  |  |  |  |  | 
4 | CC(=O)c1c(C)c2cnc(Nc3ccc(N4CCC(N5CCN(Cc6ccc7c(c6)C(=O)N(N6CCC(=O)NC6=O)C7=O)CC5)CC4)cn3)nc2n(C2CCCC2)c1=O [GT-06583, 5-((4-(1-(6-((6-acetyl-8-cyclopentyl-5-methyl-7-oxo-7,8-dihydropyrido[2,3-d]pyrimidin-2-yl)amino)pyridin-3-yl)piperidin-4-yl)piperazin-1-yl)methyl)-2-(2,4-dioxotetrahydropyrimidin-1(2H)-yl)isoindoline-1,3-dione] |  |  |  |  |  |  | 40 to 60 | 40 to 60 | 35 to 40 | 40 to 60 |  | 
5 | N#Cc1ccc(O[C@H]2CC[C@H](NC(=O)c3ccc(N4CCC(CN5CCN(C6CCN(c7ccc8c(c7)C(=O)N(N7CCC(=O)NC7=O)C8=O)CC6(F)F)CC5)CC4)nn3)CC2)cc1Cl (stereo partly drawn) [GT-05235, N-((1r,4r)-4-(3-chloro-4-cyanophenoxy)cyclohexyl)-6-(4-((4-(1-(2-(2,4-dioxotetrahydropyrimidin-1(2H)-yl)-1,3-dioxoisoindolin-5-yl)-3,3-difluoropiperidin-4-yl)piperazin-1-yl)methyl)piperidin-1-yl)pyridazine-3-carboxamide] | 5 to 10 | 30 to 40 | 10 to 15 | 30 to 40 | 5 to 10 | 35 to 40 |  |  |  |  |  | 
6 | CN(C)C(=O)c1cc2cnc(Nc3ccc(N4CCC(CN5CCN(c6cccc7c6C(=O)N(N6CCC(=O)NC6=O)C7=O)CC5)CC4)cn3)nc2n1C1CCCC1 [GT-05202, 7-cyclopentyl-2-((5-(4-((4-(2-(2,4-dioxotetrahydropyrimidin-1(2H)-yl)-1,3-dioxoisoindolin-4-yl)piperazin-1-yl)methyl)piperidin-1-yl)pyridin-2-yl)amino)-N,N-dimethyl-7H-pyrrolo[2,3-d]pyrimidine-6-carboxamide] |  |  |  |  |  |  | 15 to 20 | 40 to 60 | 35 to 40 | 35 to 40 |  | 
7 | N#CC1(CNc2cccc(-c3cc(NC4CCN(CC5CCN(c6cccc7c6C(=O)N(N6CCC(=O)NC6=O)C7=O)CC5)CC4)ncc3Cl)n2)CCOCC1 [GT-08349, 4-(((5′-chloro-2′-((1-((1-(2-(2,4-dioxotetrahydropyrimidin-1(2H)-yl)-1,3-dioxoisoindolin-4-yl)piperidin-4-yl)methyl)piperidin-4-yl)amino)-[2,4′-bipyridin]-6-yl)amino)methyl)tetrahydro-2H-pyran-4-carbonitrile] |  |  |  |  |  |  |  |  |  |  | 15 to 20 | 20 to 30
8 | CN(C)C(=O)c1cc2cnc(Nc3ccc(N4CCN(Cc5ccc6c(c5)CN(N5CCC(=O)NC5=O)C6=O)CC4)cn3)nc2n1C1CCCC1 [GT-06335, 7-cyclopentyl-2-((5-(4-((2-(2,4-dioxotetrahydropyrimidin-1(2H)-yl)-1-oxoisoindolin-5-yl)methyl)piperazin-1-yl)pyridin-2-yl)amino)-N,N-dimethyl-7H-pyrrolo[2,3-d]pyrimidine-6-carboxamide] |  |  |  |  |  |  | 10 to 15 | 40 to 60 | 35 to 40 | 30 to 35 |  | 
9 | N#Cc1ccc(O[C@H]2CC[C@H](NC(=O)c3ccc(N4CCC(CN5CCN(c6cccc7c6C(=O)N(N6CCC(=O)NC6=O)C7=O)CC5)CC4)nn3)CC2)cc1Cl [GT-05230, N-((1r,4r)-4-(3-chloro-4-cyanophenoxy)cyclohexyl)-6-(4-((4-(2-(2,4-dioxotetrahydropyrimidin-1(2H)-yl)-1,3-dioxoisoindolin-4-yl)piperazin-1-yl)methyl)piperidin-1-yl)pyridazine-3-carboxamide] | 10 to 15 | 20 to 30 | 10 to 15 | 20 to 30 | 5 to 10 | 20 to 25 |  |  |  |  |  | 
10 | N#CC1(CNc2cccc(-c3cc(NC4CCN(CC5CCN(c6ccc7c(c6)C(=O)N(N6CCC(=O)NC6=O)C7=O)CC5)CC4)ncc3Cl)n2)CCOCC1 [GT-08348, 4-(((5′-chloro-2′-((1-((1-(2-(2,4-dioxotetrahydropyrimidin-1(2H)-yl)-1,3-dioxoisoindolin-5-yl)piperidin-4-yl)methyl)piperidin-4-yl)amino)-[2,4′-bipyridin]-6-yl)amino)methyl)tetrahydro-2H-pyran-4-carbonitrile] |  |  |  |  |  |  |  |  |  |  | -5 to 0 | 30 to 40
11 | Cn1ncc(-c2nc(NC3CCN(CC4CCN(c5ccc6c(c5)C(=O)N(N5CCC(=O)NC5=O)C6=O)CC4)CC3)ncc2Cl)c1CC1CC1 [GT-08346, 5-(4-((4-((5-chloro-4-(5-(cyclopropylmethyl)-1-methyl-1H-pyrazol-4-yl)pyrimidin-2-yl)amino)piperidin-1-yl)methyl)piperidin-1-yl)-2-(2,4-dioxotetrahydropyrimidin-1(2H)-yl)isoindoline-1,3-dione] |  |  |  |  |  |  |  |  |  |  | 0 to 5 | 50 to 60
